# Tests used:
# Assay in all cases: Frequency of resistance (FOR)
# Format in all cases: cell-based
# K. pneumoniae 700603 = conditions: 4× MIC
# Method: (§1) Frequencies of resistance (FORs) of G0790 were determined for E. coli CFT073, E. cloacae (ATCC 13047), and K. pneumoniae (ATCC 700603) as previously published ([70]). To determine the FOR, 3 to 4 colonies of the strain to be tested were picked from a fresh plate and diluted to an optical density at 600 nm (OD600) of 0.00001 in 1 ml of cation-adjusted MHBII. Ten independent 5-ml cultures in MHBII were prepared by inoculating 5 μl (approximately 1 × 10^3 CFU) and incubated at 37°C for 18 h. The bacteria were pelleted by centrifugation at 4000 × g at 4°C for 15 min and resuspended in 0.5 ml fresh MHBII. Two hundred fifty microliters of the bacterial suspension was plated evenly on MHII agarose plates containing globomycin or G0790 at a final concentration of 4× and 8× MIC. In parallel, CFU from each independent culture was measured by spotting 10-fold serial dilutions on MHII agar plates and incubated at 37°C for 18 h. Colonies were counted at days 1, 2, and 3 postinoculation. FOR was calculated as the ratio of the total number of resistant colonies relative to the total CFU plated. For strains that had no resistant colonies growing on plates, the p0 method was used to calculate the FOR (FOR = m/total CFU plated, where m = −ln p0 and p0 is the proportion of cultures with no mutants; 0.7 ≥ p0 ≥ 0.1), as described previously ([71]). Colonies were picked and resuspended in 30 μl MHBII broth medium, and 10 μl was plated on an MHII agar plate containing G0790 to be used to determine the MIC. Of the remaining 20 μl, half was used to inoculate 1.5 ml MHBII broth medium containing G0790 and grown at 37°C for 18 h to generate cell lysates for Western blot analysis, isolate genomic DNA (gDNA) for whole-genome sequencing, and for frozen glycerol stocks.
# E. coli CFT073 = conditions: 4× MIC, MHII agarose
# Method: as §1
# E. coli CFT073 Δlpp = conditions: for FOR (frequency of resistance): MHII agarose
# Method: as §1
# E. cloacae 13047 = conditions: 4× MIC, MHII agarose
# Method: as §1
smiles,measurement,setting,value
CCCCCC[C@H]1OC(=O)CNC(=O)[C@H]([C@H](C)O)NC(=O)[C@H](CN)NC(=O)[C@H](C2CCCCC2)NC(=O)[C@H](CCC)N(C)C(=O)[C@@H]1C [G0790],FOR increase in K. pneumoniae 700603 relative to E. coli,K. pneumoniae 700603,~17 fold
same,FOR (frequency of resistance),K. pneumoniae 700603; MHII agarose,4.8 × 10^−8
same,FOR (frequency of resistance),E. coli CFT073,2.9 × 10^−9
same,Decrease in FOR in CFT073 Δlpp compared to WT CFT073,E. coli CFT073 Δlpp; 4× MIC,~85 fold
same,FOR (frequency of resistance),E. coli CFT073 Δlpp; 4× MIC,3.4 × 10^−11
same,FOR (frequency of resistance),"E. coli CFT073 Δlpp; 8× MIC, no colonies, p0 method",<1.7 × 10^−11
same,FOR (frequency of resistance),E. cloacae 13047,2.7 × 10^−9
